Tests used:
[1] = test system: human lymphoma cell U937; test: MTT proliferation inhibition, U937; assay type: cell-based
From the text: (§1) The tumor cells included, but were not limited to the following cells: human colorectal cancer cell SW480, human gastric adenocarcinoma cell MGC-803, human […], human lymphoma cell U937, human liver cancer cell Hep-G2, human cervical cancer cell Hela, human neuroglioma cell BT-325, human medulloblastoma D341 Med, and human gallbladder cancer cell GBC-SD.
(§2) Experimental method: cells in exponential growth phase were collected, and seeded to a 96-well cell culture plate, at a final concentration of 5×10^3 cells/90 μl/well. […] After the treatment for 72 h, 10 μl MTT solution (5 mg/ml, Sigma) was added to each well, and the cells were further cultured for 4 h. The culture medium was discarded, 100 μl DMSO was added to each well, and dissolution was carried out under rotation on a shaking table for 10 min.

[2] = test system: human gastric adenocarcinoma cell MGC-803; test: MTT proliferation inhibition, MGC-803; assay type: cell-based; settings: MGC-803, MTT
From the text: as §1, §2

[3] = Hygroscopicity; assay type: physicochemical
Method: (§3) 3.2 Change in Appearance and Hygroscopicity (10 Days)
Hygroscopicity was measured by reference to methods in Appendix X IX J Laboratory Procedure on Determination of Hygroscopicity of Drugs in Pharmacopoeia of The People's Republic of China (2010).

[4] = test system: human medulloblastoma D341 Med; test: MTT proliferation inhibition, D341 Med; assay type: cell-based; settings: 72 h
From the text: as §1, §2

[5] = test system: human small cell lung adenocarcinoma cell A549; test: MTT proliferation inhibition, A549; assay type: cell-based
From the text: as §1, §2

[6] = test system: human gallbladder cancer cell GBC-SD; test: MTT proliferation inhibition, GBC-SD; assay type: cell-based; settings: 72 h
From the text: as §1, §2

[7] = Stability of crystal forms in sodium phosphate/hydrochloric acid buffer pH=6.8 (37° C.); assay type: physicochemical; settings: for Purity: pH = 6.8 buffer, 37° C.
Method: 1. Test on Stability of Crystal Forms in Different Media
1.1 Stability of Different Crystal Forms in Sodium Phosphate/Hydrochloric Acid Buffer pH=6.8 (37° C.)

[8] = test system: human cervical cancer cell Hela; test: MTT proliferation inhibition, Hela; assay type: cell-based; settings: 72 h
From the text: as §1, §2

[9] = test system: human liver cancer cell Hep-G2; test: MTT proliferation inhibition, Hep-G2; assay type: cell-based
From the text: as §1, §2

[10] = test system: human neuroglioma cell BT-325; test: MTT proliferation inhibition, BT-325; assay type: cell-based; settings: BT-325, MTT, 72 h
From the text: as §1, §2

[11] = Affect factor test: related substance and transformation in crystal form (10 days); assay type: physicochemical; settings: for Purity, High temperature (60° C.) / Purity, High humidity (RH = 92.5%) / Purity, Illumination (ultraviolet lamp): 10 days; for Crystal form: after 10 days at high temperature, high humidity or illumination; for Purity of raw material: before the affect factor test (baseline); for Stability of purity: high temperature, high humidity, or illumination, 10 days later
From the text: (§4) 3. Affect Factor Test of Different Crystal Forms
3.1 Related Substance and Transformation in Crystal Form (10 Days)

[12] = test system: human colorectal cancer cell SW480; test: MTT proliferation inhibition, SW480; assay type: cell-based
From the text: as §1, §2

[13] = Affect factor test: change in appearance (10 days); assay type: physicochemical
From the text: as §4, §3

[14] = Stability of crystal forms in hydrochloric acid solution pH=1.2 (37° C.); assay type: physicochemical; settings: for Purity: pH = 1.2 hydrochloric acid solution, 37° C.; for Change of purity: stirred in hydrochloric acid medium pH=1.2 for 24 h
Method: 1.2 Stability of Different Crystal Forms in Hydrochloric Acid Solution with pH=1.2 (37° C.)

[15] = 72 h, listed as an amorphous form
[16] = 0 h (baseline), monofumarate monohydrate

With C=CCc1cccc(/C=N/NC(=O)CN2CCCN(Cc3ccccc3)CC2)c1O [Amorphous form, orbit azine monofumarate] the IC50 [1, 15] was 0.418 µM, the IC50 [2, 15] was 1.6 µM and the “Hygroscopicity, weight increase/%” value ([3]; 2014 Nov. 17 to 2014 Nov. 24) was 118.620%. The “Hygroscopicity” value ([3]; moisture absorption) was “significant weight increase”, the IC50 ([4]; listed as an amorphous form) was 0.447 µM and the IC50 [5, 15] was 2.97 µM. For the same compound, the IC50 ([6]; listed as an amorphous form) was 6.58 µM, the Purity ([7]; 0 h (baseline)) was 97.980% and the Purity ([7]; 4 h) was 87.266%. For the same compound, the Purity ([7]; 24 h) was 85.026%, the IC50 ([8]; listed as an amorphous form) was 5.65 µM and the IC50 [9, 15] was 8.38 µM. The IC50 ([10]; listed as an amorphous form) was 2.52 µM, the “Purity, High temperature (60° C.)” value [11] was 95.989% and the “Purity, High humidity (RH = 92.5%)” value [11] was 97.537%. For the same compound, the Crystal form [11] was “converted to Form B under the condition of high humidity”, the “Purity of raw material” value [11] was 97.980% and the “Purity, Illumination (ultraviolet lamp)” value [11] was 96.880%. The IC50 [12, 15] was 1.78 µM.
In the case of C=CCc1cccc(/C=N/NC(=O)CN2CCCN(Cc3ccccc3)CC2)c1O [Form A, orbit azine monofumarate], the IC50 ([1]; 72 h) is reported as 0.425 µM, the IC50 ([2]; 72 h) is reported as 1.36 µM and the “Water absorbability” value ([3]; product of Example 1) is reported as “no water absorbability”. The Appearance ([13]; High humidity) was “white solid”, the Appearance ([13]; High temperature) was “white solid” and the Appearance ([13]; Illumination) was “white solid”. For the same compound, the IC50 [4] was 0.433 µM, the IC50 ([5]; 72 h) was 2.99 µM and the IC50 [6] was 6.48 µM. The Purity ([7]; 0 h (baseline)) was 98.069%, the Purity ([7]; 4 h) was 87.153% and the Purity ([7]; 24 h) was 84.864%. It also gave an IC50 [8] of 5.68 µM, an IC50 ([9]; 72 h) of 8.41 µM and an IC50 [10] of 2.88 µM. The “Purity, High temperature (60° C.)” value [11] was 97.665%, the “Purity, High humidity (RH = 92.5%)” value [11] was 97.699% and the Crystal form [11] was “Form A”. For the same compound, the “Purity of raw material” value [11] was 98.096%, the “Stability of purity” value [11] was “relatively stable” and the “Purity, Illumination (ultraviolet lamp)” value [11] was 97.775%. For the same compound, the IC50 ([12]; 72 h) was 1.77 µM.
For C=CCc1cccc(/C=N/NC(=O)CN2CCCN(Cc3ccccc3)CC2)c1O [Form B, orbit azine monofumarate monohydrate], the IC50 ([1]; 72 h, monofumarate monohydrate) was 0.495 µM, the IC50 ([2]; 72 h, monofumarate monohydrate) was 1.39 µM and the Appearance ([13]; High humidity, monofumarate monohydrate) was “white solid”. The Appearance ([13]; High temperature, monofumarate monohydrate) was “white solid”, the Appearance ([13]; Illumination, monofumarate monohydrate) was “white solid” and the IC50 ([4]; monofumarate monohydrate) was 0.43 µM. For the same compound, the IC50 ([5]; 72 h, monofumarate monohydrate) was 2.9 µM, the IC50 ([6]; monofumarate monohydrate) was 6.16 µM and the “Extent of degradation compared” value ([14]; hydrochloric acid medium pH=1.2) was “degraded to a slightly less extent”. It also gave a Purity [14, 16] of 98.413%, a Purity ([14]; 24 h, monofumarate monohydrate) of 79.443% and a Purity ([14]; 48 h, monofumarate monohydrate) of 78.122%. For the same compound, the “Change of purity” value [14] was “decreased greatly”, the “Degradation in the medium with pH=6.8” value ([7]; pH = 6.8, 37° C.) was “degraded to a slightly less extent” and the Purity [7, 16] was 98.413%. It also gave a Purity ([7]; 4 h, monofumarate monohydrate) of 93.112%, a Purity ([7]; 24 h, monofumarate monohydrate) of 90.266% and an IC50 ([8]; monofumarate monohydrate) of 5.75 µM. The IC50 ([9]; 72 h, monofumarate monohydrate) was 8.32 µM, the IC50 ([10]; monofumarate monohydrate) was 2.31 µM and the “Purity, High temperature (60° C.)” value ([11]; monofumarate monohydrate) was 97.809%. For the same compound, the “Purity, High humidity (RH = 92.5%)” value ([11]; monofumarate monohydrate) was 98.176%, the Crystal form ([11]; monofumarate monohydrate) was “Form B” and the “Purity of raw material” value ([11]; monofumarate monohydrate) was 98.413%. The “Stability of purity” value [11] was “relatively stable”, the “Purity, Illumination (ultraviolet lamp)” value ([11]; monofumarate monohydrate) was 98.116% and the IC50 ([12]; 72 h, monofumarate monohydrate) was 1.98 µM.
With C=CCc1cccc(/C=N/NC(=O)CN2CCCN(Cc3ccccc3)CC2)c1O [Form C, orbit azine difumarate] the IC50 ([1]; 72 h) was 0.391 µM, the IC50 ([2]; 72 h) was 1.28 µM and the “Change of color” value [13] was “turned slightly yellow”. For the same compound, the Appearance ([13]; High humidity) was “white solid”, the Appearance ([13]; High temperature) was “white solid” and the IC50 [4] was 0.411 µM. The IC50 ([5]; 72 h) was 3.07 µM, the IC50 [6] was 6.37 µM and the Purity ([14]; 0 h (baseline)) was 97.865%. The Purity ([14]; 24 h) was 72.042%, the Purity ([14]; 48 h) was 71.017% and the “Change of purity” value [14] was “decreased greatly”. The Purity ([7]; 0 h (baseline)) was 94.584%, the Purity ([7]; 4 h) was 83.292% and the Purity ([7]; 24 h) was 82.680%. The IC50 [8] was 5.49 µM, the IC50 ([9]; 72 h) was 8.21 µM and the IC50 [10] was 2.65 µM. For the same compound, the “Purity, High temperature (60° C.)” value [11] was 97.244%, the “Purity, High humidity (RH = 92.5%)” value [11] was 97.733% and the Crystal form [11] was “Form C”. For the same compound, the “Purity of raw material” value [11] was 97.865%, the “Purity, Illumination (ultraviolet lamp)” value [11] was 95.696% and the IC50 ([12]; 72 h) was 1.93 µM.
Work on C=CCc1cccc(/C=N/NC(=O)CN2CCCN(Cc3ccccc3)CC2)c1O [Form D, orbit azine difumarate] yielded an IC50 ([1]; Homo sapiens, U-937, 72 h) of 0.414 µM, an IC50 ([2]; Homo sapiens, MGC-803, 72 h) of 1.45 µM and an IC50 ([4]; Homo sapiens) of 0.484 µM. It also gave an IC50 ([5]; Homo sapiens, A549, 72 h) of 2.87 µM, an IC50 ([6]; Homo sapiens) of 6.95 µM and a Purity ([7]; 0 h (baseline)) of 97.999%. It also gave a Purity ([7]; 4 h) of 85.418%, a Purity ([7]; 24 h) of 84.552% and an IC50 ([8]; Homo sapiens, HeLa) of 5.17 µM. It also gave an IC50 ([9]; Homo sapiens, HepG2, 72 h) of 8.18 µM, an IC50 ([10]; Homo sapiens) of 2.71 µM and an IC50 ([12]; Homo sapiens, SW480, 72 h) of 1.67 µM.
